Assay results reported in patent US20200339691A1, “PROTEINACEOUS MOLECULES AND USES THEREFOR” (priority 2018, published 2020).
Where a SMILES comes first, the peptide text is derived from it. The star is where a group is joined. Myristoyl = CCCCCCCCCCCCCC(=O)*

What was measured:
DMNTI = experiment: Immunofluorescence of DMNTI in MDA-MB-231 cells; format: cell-based, human; conditions: 50 μM, 72 hours
Experimental: Cells were treated with 50 μM P1, P2, P3 or P4 (synthesized in accordance with Example 5) or vehicle (water) for 72 hours. […] Confocal laser scanning microscopy was used to measure the […] and TCFI as described above. At least 20 individual cells were analyzed per sample.

[1] = test system: CD44^hiCD24^lo CSCs in MCF7 cells; experiment: FACS analysis of CD44^hiCD24^lo CSCs in MCF7 cells; format: cell-based, human; conditions: 50 μM peptide, 48 hours
Experimental: (§1) P1 Analogues were synthesized in accordance with the procedure of Example 5. 4×10^4 MDA-MB-231 cells or 1×10^4 induced or non-induced MCF7 cells were seeded in a 12 well plate with 1 mL complete media overnight. Induced MCF7 cells were prepared by stimulating cells with PMA/TGF-β and incubating for 12 hours. Cells were treated with 50 μM test peptide (dissolved in water) for 48 hours. Cells were then washed twice with 1 mL PBS and harvested by trypsinisation. Non-adherent cells were removed during the washing steps. Adherent cells were collected, and were subsequently stained with anti-human CD44, CD24 and Hoechst 33342 antibodies on ice for 30 mins. FACS was performed on BD FACS LSRII to measure the percentage of CD44^hiCD24^lo CSCs by dividing CD44^hiCD24^lo events by total live cell counts (Hoechst negative population) (as described in Fillmore and Kuperwasser (2007) Breast Cancer Res, 9: 303). The percentage of viable cells was calculated by dividing total live cell events by total single cells as described previously (Siemann and Keng (1986), Cancer Res, 46: 3556-3559).

MDA-MB-231 cells [2] = conditions: 72 h
Experimental: The effect of P1, P2 and P3 (synthesized in accordance with Example 5) on MDA-MB-231 cell proliferation was assessed using a WST-1 proliferation assay.
MCF7 cells were transfected with a plasmid containing the wild-type PD-L1 sequence, a plasmid containing a PD-L1 [K263Q] mutant (Mut1) or vector only (VO) using the NEON electroporation transfection system (Life Technologies). Transfected cells were used for the colorimetric based WTS-1 proliferation assay (Sigma-Aldrich) to examine the effect of transfection on MCF7 cell proliferation. The WTS-1 proliferation assay was also used to determine the effect of treatment with P1, P2 and P3 (synthesized in accordance with Example 5) on MDA-MB-231 cell proliferation. The stable tetrazolium salt WST-1 is cleaved to a soluble formazan by a complex cellular mechanism that occurs primarily at the cell surface. This bioreduction is largely dependent on the glycolytic production of NAD(P)H in viable cells. Therefore, the amount of formazan dye formed directly correlates to the number of metabolically active cells in the culture. Cells grown in a 96-well tissue culture plate were treated with vehicle only or 6.25, 12.5, 25, 50, 100, 200 or 400 μM of P1, P2 or P3 for 72 hours at 37° C. in a humidified CO2 incubator. Cells were then incubated with the WST-1 reagent for 0.5-4 hours. Following incubation, the formazan dye formed is quantitated with a scanning multi-well spectrophotometer (ELISA reader). The measured absorbance directly correlates to the number of viable cells.

[3] = test system: acetylated PD-L1 and p300; experiment: Colocalization (PCC(r)) of acetylated PD-L1 and p300 in MDA-MB-231 cells; format: cell-based, human; conditions: 50 μm
Experimental: The effect of P1, P2, P3 and P4 (synthesized in accordance with Example 5) on p300 localization was examined using confocal laser scanning microscopy. […] Cover slips were mounted on glass microscope slides with ProLong Diamond Antifade reagent (Life Technologies). Protein targets were localized by confocal laser scanning microscopy as described above. TNFI and PCC(r) were calculated using ImageJ software as previously described.

PD-L1 = experiment: Immunofluorescence (confocal) of PD-L1 in MDA-MB-231 cells, Example 6; format: cell-based, human; conditions: 50 μM, 72 hours
Experimental: Confocal laser scanning microscopy was employed to investigate the effect of P1, P2 and P3 (synthesized in accordance with Example 5) on the nuclear expression of PD-L1 and acetylated PD-L1 (PDL1-Ac) (FIG. 9).
1×10^4 MDA-MB-231 cells were seeded onto coverslips in 12 well plates with DMEM media overnight. Cells were treated with 50 μM P1, P2, P3 or P4 or vehicle (water) for 72 hours. Treated cells were fixed with 3.7% formaldehyde, and then permeabilised by incubating with 1% Triton X-100 for 20 min. Cells were then probed with a rabbit anti-PD-L1 antibody (Santa Cruz Biotechnology) or rabbit anti-acetylated PD-L1 (generated as described above) and visualized with a donkey anti-rabbit AF 488. Cover slips were mounted on glass microscope slides with ProLong Diamond Antifade reagent (Life Technologies). Protein targets were localized using confocal laser scanning microscopy. Single 0.5 μm sections were obtained using a Leica DMI8 microscope using 100× oil immersion lens running LAX software. The final image was obtained by averaging four sequential images of the same section. Digital images were analyzed using ImageJ software as described above.

[4] = test system: CD44^hiCD24^lo CSCs in MDA-MB-231 cells; experiment: FACS analysis of CD44^hiCD24^lo cancer stem cells in MDA-MB-231 cells treated with P1 analogues; format: cell-based, human; conditions: 50 μM peptide, 48 hours; for CD44^hiCD24^lo CSCs (%) / COI, Live Single CD44^hiCD24^lo CSCs (Cell Count): n = 1; for Average Inhibition of CSCs (%) / CD44^hiCD24^lo CSCs (%) Repeat 1 / CD44^hiCD24^lo CSCs (%) Repeat 2 / CD44^hiCD24^lo CSCs (%) Repeat 3: n = 3
Experimental: Analogues of P1 (Table 6) were designed and synthesized in accordance with the procedure of Example 5. The ability of these analogues to inhibit cancer stem cells was determined using FACS analysis on MDA-MB-231 cells, which constitutively contain approximately 90% CD44^hiCD24^lo cancer stem cells, treated with the peptides.
(§2) Non-adherent cells were removed during the washing steps.

MDA-MB-231 cells [5] = format: cell-based, human; conditions: 50 μM peptide, 48 hours, n = 1
Excerpt: as §2

[6] = test system: cell surface vimentin (CSV); experiment: Immunofluorescence of CSV in MDA-MB-231 cells, Example 14; format: cell-based, human; conditions: 50 μM, 72 hours
Experimental: 1×10^4 MDA-MB-231 cells were treated with 50 μM P1, P2, P3 (synthesized in accordance with Example 5) or vehicle (water) for 72 hours. Cells were fixed with 3.7% formaldehyde and permeabilized with 2% Triton-X-100, then probed with a primary rabbit antibody to PD-L2, primary goat antibody to PD-L1 and primary mouse antibody to CSV, followed by the corresponding secondary antibody conjugated to anti-mouse Alexa-Fluor 568, anti-goat Alexa-Fluor 633 or anti-rabbit Alexa-Fluor 488. Confocal laser scanning microscopy was used to measure the TNFI and TCFI as described above. At least 20 individual cells were analyzed per sample.

induced MCF7 cells = experiment: FACS CSC inhibition in induced MCF7 cells; format: cell-based, human; conditions: induced MCF7 cells (PMA/TGF-β), 50 μM peptide, 48 hours
Experimental: as §1
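Throughout, for COI, Live Single Cells (Cell Count): live means Hoechst-negative events among single cells.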

CCCCCCCCCCCCCC(=O)N[C@@H](CC(C)C)C(=O)N[C@H](C(=O)N[C@@H](Cc1ccccc1)C(=O)N[C@H](C(=O)N[C@@H](Cc1ccccc1)C(=O)N[C@@H](CCCNC(=N)N)C(=O)N[C@@H](CC(C)C)C(=O)N[C@@H](CCCNC(=N)N)C(=O)N[C@@H](CCCCNC(C)=O)C(=O)NCC(=O)N[C@@H](CCCNC(=N)N)C(=O)N[C@@H](CCSC)C(=O)N[C@@H](CCSC)C(=O)N[C@@H](CC(=O)O)C(=O)N[C@H](C(=O)N[C@@H](CCCCN)C(=O)N[C@@H](CCCCN)C(N)=O)C(C)C)[C@@H](C)CC)[C@@H](C)O [Peptide P3, Myristoyl-LTFIFRLRK(Ac)GRMMDVKK-NH2] (Myristoyl-LTFIFRLRK(Ac)GRMMDVKK-NH2)
expression / nuclear localization of DMNTI (DMNTI): significantly abrogated | CD44^hiCD24^lo CSC % [1]: 3.26% | COI/Single Cells/Live/CD44^hiCD24^lo CSCs Count [1]: 162 | IC50 (MDA-MB-231 cells [2]): 542 µM | colocalization of acetylated PD-L1 and p300 [3]: significantly decreased | nuclear expression of PD-L1 (PD-L1): inhibited | Inhibition of CSCs (%) Repeat 1 [4]: 92.77% | Inhibition of CSCs (%) Repeat 2 [4]: 91.10% | Inhibition of CSCs (%) Repeat 3 [4]: 87.85% | CD44^hiCD24^lo CSCs (%) [4]: 8.04% | COI, Live Single CD44^hiCD24^lo CSCs (Cell Count) [4]: 410 | Average Inhibition of CSCs (%) [4]: 90.57% | CD44^hiCD24^lo CSCs (%) Repeat 1 [4]: 6.48% | CD44^hiCD24^lo CSCs (%) Repeat 2 [4]: 7.99% | CD44^hiCD24^lo CSCs (%) Repeat 3 [4]: 10.90% | COI (Cell Count) (MDA-MB-231 cells [5]): 6874 | COI, Live Single Cells (Cell Count) (MDA-MB-231 cells [5]): 5099 | COI, Single (Cell Count) (MDA-MB-231 cells [5]): 5237 | Total Cell Count (MDA-MB-231 cells [5]): 20311 | Viable Cells (%) (MDA-MB-231 cells [5]): 97.36% | CSV expression [6]: significantly inhibited | CSC inhibition (%) (induced MCF7 cells): 53.67%

CCCCCCCCCCCCCC(=O)N[C@@H](CC(C)C)C(=O)N[C@H](C(=O)N[C@@H](Cc1ccccc1)C(=O)N[C@H](C(=O)N[C@@H](Cc1ccccc1)C(=O)N[C@@H](CCCNC(=N)N)C(=O)N[C@@H](CC(C)C)C(=O)N[C@@H](CCCNC(=N)N)C(=O)N[C@@H](CCC(N)=O)C(=O)NCC(=O)N[C@@H](CCCNC(=N)N)C(=O)N[C@@H](CCSC)C(=O)N[C@@H](CCSC)C(=O)N[C@@H](CC(=O)O)C(=O)N[C@H](C(=O)N[C@@H](CCCCN)C(=O)N[C@@H](CCCCN)C(N)=O)C(C)C)[C@@H](C)CC)[C@@H](C)O [Peptide P2, Myristoyl-LTFIFRLRQGRMMDVKK-NH2] (Myristoyl-LTFIFRLRQGRMMDVKK-NH2)
expression / nuclear localization of DMNTI (DMNTI): significantly abrogated | CD44^hiCD24^lo CSC % [1]: 2.82% | COI/Single Cells/Live/CD44^hiCD24^lo CSCs Count [1]: 123 | IC50 (MDA-MB-231 cells [2]): 564 µM | colocalization of acetylated PD-L1 and p300 [3]: significantly decreased | nuclear expression of PD-L1 (PD-L1): inhibited | Inhibition of CSCs (%) Repeat 1 [4]: 79.10% | Inhibition of CSCs (%) Repeat 2 [4]: 82.65% | Inhibition of CSCs (%) Repeat 3 [4]: 85.94% | CD44^hiCD24^lo CSCs (%) [4]: 13.99% | COI, Live Single CD44^hiCD24^lo CSCs (Cell Count) [4]: 616 | Average Inhibition of CSCs (%) [4]: 82.56% | CD44^hiCD24^lo CSCs (%) Repeat 1 [4]: 18.73% | CD44^hiCD24^lo CSCs (%) Repeat 2 [4]: 15.56% | CD44^hiCD24^lo CSCs (%) Repeat 3 [4]: 12.62% | COI (Cell Count) (MDA-MB-231 cells [5]): 6317 | COI, Live Single Cells (Cell Count) (MDA-MB-231 cells [5]): 4402 | COI, Single (Cell Count) (MDA-MB-231 cells [5]): 4580 | Total Cell Count (MDA-MB-231 cells [5]): 12706 | Viable Cells (%) (MDA-MB-231 cells [5]): 96.11% | CSV expression [6]: significantly inhibited | CSC inhibition (%) (induced MCF7 cells): 59.93%

CCCCCCCCCCCCCC(=O)N[C@@H](CC(C)C)C(=O)N[C@H](C(=O)N[C@@H](Cc1ccccc1)C(=O)N[C@H](C(=O)N[C@@H](Cc1ccccc1)C(=O)N[C@@H](CCCNC(=N)N)C(=O)N[C@@H](CC(C)C)C(=O)N[C@@H](CCCNC(=N)N)C(=O)N[C@@H](CCCCN)C(=O)NCC(=O)N[C@@H](CCCNC(=N)N)C(=O)N[C@@H](CCSC)C(=O)N[C@@H](CCSC)C(=O)N[C@@H](CC(=O)O)C(=O)N[C@H](C(=O)N[C@@H](CCCCN)C(=O)N[C@@H](CCCCN)C(N)=O)C(C)C)[C@@H](C)CC)[C@@H](C)O [Peptide P1, Myristoyl-LTFIFRLRKGRMMDVKK-NH2] (Myristoyl-LTFIFRLRKGRMMDVKK-NH2)
expression / nuclear localization of DMNTI (DMNTI): significantly abrogated | CD44^hiCD24^lo CSC % [1]: 4.36% | COI/Single Cells/Live/CD44^hiCD24^lo CSCs Count [1]: 233 | IC50 (MDA-MB-231 cells [2]): 103 µM | colocalization of acetylated PD-L1 and p300 [3]: significantly decreased | nuclear expression of PD-L1 (PD-L1): inhibited | Inhibition of CSCs (%) Repeat 1 [4]: 93.33% | Inhibition of CSCs (%) Repeat 2 [4]: 89.97% | Inhibition of CSCs (%) Repeat 3 [4]: 90.28% | CD44^hiCD24^lo CSCs (%) [4]: 15.77% | COI, Live Single CD44^hiCD24^lo CSCs (Cell Count) [4]: 220 | Average Inhibition of CSCs (%) [4]: 91.19% | CD44^hiCD24^lo CSCs (%) Repeat 1 [4]: 5.98% | CD44^hiCD24^lo CSCs (%) Repeat 2 [4]: 9.00% | CD44^hiCD24^lo CSCs (%) Repeat 3 [4]: 8.72% | COI (Cell Count) (MDA-MB-231 cells [5]): 2038 | COI, Live Single Cells (Cell Count) (MDA-MB-231 cells [5]): 1395 | COI, Single (Cell Count) (MDA-MB-231 cells [5]): 1523 | Total Cell Count (MDA-MB-231 cells [5]): 4339 | Viable Cells (%) (MDA-MB-231 cells [5]): 91.60% | CSV expression [6]: significantly inhibited | CSC inhibition (%) (induced MCF7 cells): 38.10%
